Source: ChEMBL document CHEMBL5725273, “Thienopyranones as kinase and epigenetic inhibitors” (2016)

Legend:
[1] = target: Bromodomain-containing protein 4 (Homo sapiens, UniProt O60885); experiment: (§1) Inhibition Assay: Several TP Scaffold compounds were tested for inhibition activity against isoforms of PI3K (alpha, beta, gamma, and delta isoforms) and the bromodomain protein BRD4 at regions 1 (BRD4-1) and 2 (BRD4-2).
[2] = target: Phosphatidylinositol 4,5-bisphosphate 3-kinase catalytic subunit gamma isoform (Homo sapiens, UniProt P48736); experiment: as §1
[3] = target: T1, Phosphatidylinositol 4,5-bisphosphate 3-kinase catalytic subunit delta isoform (Homo sapiens, UniProt O00329); experiment: as §1
T1 sequence (O00329 whole entry): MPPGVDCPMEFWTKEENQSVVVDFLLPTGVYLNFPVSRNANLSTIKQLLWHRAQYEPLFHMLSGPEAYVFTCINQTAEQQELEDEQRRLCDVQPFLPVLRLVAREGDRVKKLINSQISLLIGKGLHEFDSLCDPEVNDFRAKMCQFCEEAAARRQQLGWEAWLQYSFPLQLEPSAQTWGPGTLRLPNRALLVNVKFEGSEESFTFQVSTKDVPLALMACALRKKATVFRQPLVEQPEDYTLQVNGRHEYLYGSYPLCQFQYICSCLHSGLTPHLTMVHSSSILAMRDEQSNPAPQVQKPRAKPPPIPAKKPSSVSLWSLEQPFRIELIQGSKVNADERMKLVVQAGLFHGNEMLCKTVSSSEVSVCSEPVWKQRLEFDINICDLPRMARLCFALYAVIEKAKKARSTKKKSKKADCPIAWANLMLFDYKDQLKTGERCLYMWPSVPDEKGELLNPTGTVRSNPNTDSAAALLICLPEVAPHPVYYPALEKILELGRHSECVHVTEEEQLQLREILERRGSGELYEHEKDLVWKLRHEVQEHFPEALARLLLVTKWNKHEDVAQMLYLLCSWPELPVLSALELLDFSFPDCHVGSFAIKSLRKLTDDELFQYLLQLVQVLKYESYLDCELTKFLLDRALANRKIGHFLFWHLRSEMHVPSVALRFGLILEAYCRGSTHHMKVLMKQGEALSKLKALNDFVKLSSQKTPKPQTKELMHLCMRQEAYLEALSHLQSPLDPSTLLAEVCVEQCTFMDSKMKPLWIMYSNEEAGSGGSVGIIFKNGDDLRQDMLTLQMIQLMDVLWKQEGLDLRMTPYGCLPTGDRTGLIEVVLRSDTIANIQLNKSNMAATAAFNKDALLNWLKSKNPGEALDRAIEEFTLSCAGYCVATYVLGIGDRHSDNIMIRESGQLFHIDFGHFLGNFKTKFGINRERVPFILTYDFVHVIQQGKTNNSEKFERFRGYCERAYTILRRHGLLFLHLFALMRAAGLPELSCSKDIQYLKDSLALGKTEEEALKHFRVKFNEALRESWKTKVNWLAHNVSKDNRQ

[4] = target: Phosphatidylinositol 4,5-bisphosphate 3-kinase catalytic subunit alpha isoform (Homo sapiens, UniProt P42336); experiment: as §1
Phosphatidylinositol 4,5-bisphosphate 3-kinase catalytic subunit alpha isoform, sequence (P42336 whole entry, canonical isoform): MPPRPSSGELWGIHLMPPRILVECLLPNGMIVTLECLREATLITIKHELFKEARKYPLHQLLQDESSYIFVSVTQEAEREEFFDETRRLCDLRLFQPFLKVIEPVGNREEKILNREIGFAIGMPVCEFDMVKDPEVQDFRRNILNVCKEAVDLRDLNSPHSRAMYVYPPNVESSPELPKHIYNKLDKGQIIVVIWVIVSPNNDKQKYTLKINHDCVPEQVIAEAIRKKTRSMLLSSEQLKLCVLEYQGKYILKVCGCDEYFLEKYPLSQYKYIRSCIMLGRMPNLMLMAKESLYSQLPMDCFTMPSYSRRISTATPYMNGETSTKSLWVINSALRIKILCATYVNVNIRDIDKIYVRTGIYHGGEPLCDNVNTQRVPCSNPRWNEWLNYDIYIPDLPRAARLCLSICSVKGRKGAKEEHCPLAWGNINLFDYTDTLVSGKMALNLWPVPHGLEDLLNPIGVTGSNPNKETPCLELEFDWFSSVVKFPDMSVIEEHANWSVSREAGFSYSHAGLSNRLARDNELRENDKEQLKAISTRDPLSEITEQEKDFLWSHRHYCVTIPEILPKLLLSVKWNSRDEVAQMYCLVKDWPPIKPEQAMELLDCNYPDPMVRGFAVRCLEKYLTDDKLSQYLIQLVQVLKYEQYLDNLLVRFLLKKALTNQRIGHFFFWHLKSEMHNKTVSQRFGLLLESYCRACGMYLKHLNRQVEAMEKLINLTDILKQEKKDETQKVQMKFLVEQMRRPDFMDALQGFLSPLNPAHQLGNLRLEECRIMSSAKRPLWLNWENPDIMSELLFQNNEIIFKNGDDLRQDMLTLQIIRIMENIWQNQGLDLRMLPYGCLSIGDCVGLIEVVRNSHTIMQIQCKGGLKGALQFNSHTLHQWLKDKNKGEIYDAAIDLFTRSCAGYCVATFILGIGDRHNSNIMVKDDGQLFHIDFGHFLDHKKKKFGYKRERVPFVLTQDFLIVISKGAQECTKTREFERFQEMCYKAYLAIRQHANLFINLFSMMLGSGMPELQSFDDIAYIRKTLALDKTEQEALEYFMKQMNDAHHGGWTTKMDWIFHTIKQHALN

Phosphatidylinositol 4,5-bisphosphate 3-kinase catalytic subunit gamma isoform, sequence (P48736 whole entry, canonical isoform): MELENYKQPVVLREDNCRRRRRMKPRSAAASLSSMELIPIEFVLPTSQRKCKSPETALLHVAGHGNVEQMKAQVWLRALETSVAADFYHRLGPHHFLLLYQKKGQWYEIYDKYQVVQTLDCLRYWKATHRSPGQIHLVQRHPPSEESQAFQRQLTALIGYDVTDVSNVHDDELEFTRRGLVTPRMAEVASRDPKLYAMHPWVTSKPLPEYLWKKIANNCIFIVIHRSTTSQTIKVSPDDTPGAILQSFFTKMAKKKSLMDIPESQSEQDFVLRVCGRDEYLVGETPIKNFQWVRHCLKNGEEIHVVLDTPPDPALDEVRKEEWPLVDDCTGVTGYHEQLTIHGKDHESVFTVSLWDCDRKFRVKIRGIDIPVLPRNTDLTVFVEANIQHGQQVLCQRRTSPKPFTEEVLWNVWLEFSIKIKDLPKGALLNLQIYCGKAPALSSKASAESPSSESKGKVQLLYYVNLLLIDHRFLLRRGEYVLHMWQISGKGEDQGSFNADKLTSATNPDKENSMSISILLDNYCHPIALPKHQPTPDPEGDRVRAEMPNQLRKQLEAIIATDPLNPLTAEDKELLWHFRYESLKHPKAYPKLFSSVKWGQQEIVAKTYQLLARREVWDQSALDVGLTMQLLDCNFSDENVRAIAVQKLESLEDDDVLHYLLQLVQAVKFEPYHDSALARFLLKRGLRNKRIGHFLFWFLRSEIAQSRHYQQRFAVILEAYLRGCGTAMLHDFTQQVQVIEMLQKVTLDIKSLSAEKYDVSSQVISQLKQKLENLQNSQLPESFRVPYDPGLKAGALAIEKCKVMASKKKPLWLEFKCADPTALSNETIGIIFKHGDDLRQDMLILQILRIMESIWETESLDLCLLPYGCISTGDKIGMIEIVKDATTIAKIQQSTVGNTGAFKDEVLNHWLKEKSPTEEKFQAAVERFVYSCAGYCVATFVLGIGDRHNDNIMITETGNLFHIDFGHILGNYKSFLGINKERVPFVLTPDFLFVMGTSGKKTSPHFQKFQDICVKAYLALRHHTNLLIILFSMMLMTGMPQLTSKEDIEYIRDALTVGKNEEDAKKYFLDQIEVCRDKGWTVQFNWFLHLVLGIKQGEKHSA

With `CCOC(=O)c1ccc(-c2csc3c(=O)cc(N4CCSCC4)oc23)cc1` the IC50 [1] was 1.01 µM, the IC50 [2] was > 50 µM and the IC50 [3] was 2.49 µM. For the same molecule, the IC50 [4] was 29.1 µM.
